Results taken from patent publication US7388017B2, “Inhibitors of serine proteases, particularly hepatitis C virus NS3 protease” (Vertex Pharmaceuticals Incorporated, priority 1996, dated 2008).
Starred links: 1 amine or outer side, 2 acyl side, 3 side chain; linkers in the order of their positions; H or OH if unused. Non-standard residues stand in square brackets, D forms with d. Residues, ends and D or L forms follow the SMILES beside them. Groups on a side chain read outwards from the residue. *: point of attachment. Pyrazinecarbonyl = O=C(c1cnccn1)*; Hyp = O=C(O)[CH]1C[CH](O)CN1; X21 = FC(F)(F)Oc1cccc(C*)c1; 3Abz = Nc1cccc(C(=O)O)c1; X10 = c1ccc2cc(C*)ccc2c1; X42 = Clc1cccc(N*)c1Cl; Abu = CC[CH](N)C(=O)O; X22 = N#Cc1cccc(C*)c1; X33 = N#Cc1ccc(C*)cc1; CO = O=C([*:1])[*:2]; Bz = O=C(c1ccccc1)*; X47 = COc1ccccc1N*

Each compound was assayed against T1, HCV NS3 protease (Hepatitis C virus genotype 1a, UniProt P27958) (assay: Enzyme inhibition of HCV NS3 serine protease (cleavage of peptide substrate / EDVV AbuC-p-nitroanilide, with or without NS4A)). Conditions: not given.
T1 construct: more particularly HCV NS3 proteases
T1 sequence (P27958 1027-1208): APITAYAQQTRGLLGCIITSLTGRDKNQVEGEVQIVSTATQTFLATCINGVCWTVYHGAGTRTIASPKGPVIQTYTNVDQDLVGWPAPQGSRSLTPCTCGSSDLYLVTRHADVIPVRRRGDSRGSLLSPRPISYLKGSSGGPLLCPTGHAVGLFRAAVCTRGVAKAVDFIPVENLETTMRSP
Type: biochemical
How it was run: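 Spectrophotometric assay at 30 °C following pNA release at 405 nm from EDVV AbuC-pNA substrate, with or without NS4A. Ki from rate versus [inhibitor] fitted to Morrison's tight-binding competitive inhibition equation; Kii/Kis from mixed-inhibition fits; values reported in μM.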
Work on `CCC(NC(=O)C1CC(OCc2ccccc2)CN1C(=O)C(NC(=O)C(NC(=O)c1cnccn1)C(C)C)C(C)C)P(=O)(Oc1ccccc1)Oc1ccccc1` (stereo not shown) [Compound 73] yielded a Ki of 1 to 100 µM.

Same assay, conditions: Enzyme inhibition data; Ki from rate vs [inhibitor] plots, Morrison tight binding competitive inhibition fit; 30 C, pH 7.8; read-out: Ki
Work on `CCC(C=O)NC(=O)C1CC(NC(=O)c2ccccc2)CN1C(=O)C(NC(=O)C(NC(=O)c1cnccn1)C(C)C)C(C)C` (stereo not shown) [Compound 62] yielded a Ki of 1 to 100 µM.
Compound `CCC(C=O)NC(=O)C1CC(OCc2cccc(OC(F)(F)F)c2)CN1C(=O)C(NC(=O)C(NC(=O)c1cnccn1)C(C)C)C(C)C` (stereo not shown) [Compound 9] (Pyrazinecarbonyl-VV[Hyp](X21)[Abu]-aldehyde; configuration not given here) has a Ki of 1 to 100 µM.
With `CCC(C=O)NC(=O)C1CC(OCc2ccccc2)CN1C(=O)C(NC(=O)c1nccc2ccccc12)C(C)C` (stereo not shown) [Compound 158] the Ki was 1 to 100 µM.
For `CCC(NC(=O)C(CC(C)C)NC(=O)C(NC(=O)C(NC(=O)c1cnccn1)C(C)C)C(C)C)C(=O)C(=O)N(CC)CC` (stereo not shown) [Compound 122], the Ki was greater than 100 µM.
With `CCOC(=O)c1cccc(NC(=O)OC2CC(C(=O)NC(C=O)CC)N(C(=O)C(NC(=O)C(NC(=O)c3cnccn3)C(C)C)C(C)C)C2)c1` (stereo not shown) [Compound 56] (Pyrazinecarbonyl-VV[Hyp]([CO-3Abz-OEt])[Abu]-aldehyde; configuration not given here) the Ki was greater than 100 µM.
`CCC(C=O)NC(=O)C1CC(NCc2ccccc2)CN1C(=O)C(NC(=O)C(NC(=O)c1cnccn1)C(C)C)C(C)C` (stereo not shown) [Compound 67] was tested, and the Ki was greater than 100 µM.
In the case of `CCC(C=O)NC(=O)C1CC(OCc2cccc(C#N)c2)CN1C(=O)C(NC(=O)C(NC(=O)c1cnccn1)C(C)C)C(C)C` (stereo not shown) [Compound 21] (Pyrazinecarbonyl-VV[Hyp](X22)[Abu]-aldehyde; configuration not given here), the Ki is reported as 1 to 100 µM.
`CCC(C=O)NC(=O)C1CC(NC(=O)NCc2ccccc2)CN1C(=O)C(NC(=O)C(NC(=O)c1cnccn1)C(C)C)C(C)C` (stereo not shown) [Compound 58] was tested, and the Ki was 1 to 100 µM.
In the case of `CCC(C=O)NC(=O)C1CC(OC(=O)c2ccccc2)CN1C(=O)C(NC(=O)C(NC(=O)c1cnccn1)C(C)C)C(C)C` (stereo not shown) [Compound 28] (Pyrazinecarbonyl-VV[Hyp](Bz)[Abu]-aldehyde; configuration not given here), the Ki is reported as 1 to 100 µM.
`C=CCOC(=O)NC1CC(C(=O)NC(C=O)CC)N(C(=O)C(NC(=O)C(NC(=O)c2cnccn2)C(C)C)C(C)C)C1` (stereo not shown) [Compound 61] gave a Ki greater than 100 µM.
For `CCC(C=O)NC(=O)C1CC(OC(=O)Nc2cccc(Cl)c2Cl)CN1C(=O)C(NC(=O)C(NC(=O)c1cnccn1)C(C)C)C(C)C` (stereo not shown) [Compound 31] (Pyrazinecarbonyl-VV[Hyp]([CO-X42])[Abu]-aldehyde; configuration not given here), the Ki was 1 to 100 µM.
`CCC(C=O)NC(=O)C1CC(OC(=O)Nc2ccccc2OC)CN1C(=O)C(NC(=O)C(NC(=O)c1cnccn1)C(C)C)C(C)C` (stereo not shown) [Compound 43] (Pyrazinecarbonyl-VV[Hyp]([CO-X47])[Abu]-aldehyde; configuration not given here) was tested, and the Ki was 1 to 100 µM.
`CCC(C=O)NC(=O)C1CC(NS(=O)(=O)Cc2ccccc2)CN1C(=O)C(NC(=O)C(NC(=O)c1cnccn1)C(C)C)C(C)C` (stereo not shown) [Compound 65] gave a Ki of 1 to 100 µM.
`CCC(NC(=O)C(CC(C)C)NC(=O)C(NC(=O)C(NC(=O)c1cnccn1)C(C)C)C(C)C)C(=O)C(=O)Nc1ccccc1` (stereo not shown) [Compound 119] gave a Ki greater than 100 µM.
`CCC(C=O)NC(=O)C1CC(OCc2ccc(C#N)cc2)CN1C(=O)C(NC(=O)C(NC(=O)c1cnccn1)C(C)C)C(C)C` (stereo not shown) [Compound 15] (Pyrazinecarbonyl-VV[Hyp](X33)[Abu]-aldehyde; configuration not given here) showed a Ki of 1 to 100 µM.
Work on `CCC(C=O)NC(=O)C1CC(NC(=O)c2ccc(Cl)c(Cl)c2)CN1C(=O)C(NC(=O)C(NC(=O)c1cnccn1)C(C)C)C(C)C` (stereo not shown) [Compound 57] yielded a Ki of 1 to 100 µM.
For `CCC(C=O)NC(=O)C1CC(OCc2ccccc2)CN1C(=O)C(NC(=O)Cc1csc(N)n1)C(C)C` (stereo not shown) [Compound 155], the Ki was 1 to 100 µM.
Compound `CCC(C=O)NC(=O)C1CC(OCc2ccc3ccccc3c2)CN1C(=O)C(NC(=O)C(NC(=O)c1cnccn1)C(C)C)C(C)C` (stereo not shown) [Compound 20] (Pyrazinecarbonyl-VV[Hyp](X10)[Abu]-aldehyde; configuration not given here) has a Ki of 1 to 100 µM.
